In PubChem BioAssay (NCI):
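In this assay, cells in 96-well plates receive the compound at five concentrations for 48 hours. Endpoints are linearly interpolated between the surrounding concentrations. Abbreviation: GI50, concentration required for 50% inhibition of growth. TGI marks complete inhibition of growth.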

How the values were obtained:
Experiment in all cases: inhibition of tumour cell growth, NCI panel, 48 h; in the data active = GI50 below about 0.43 µM; inactive = the rest
786-0 renal = tested on: 786-0 renal
A498 renal = tested on: A498 renal
A549 NSCLC = tested on: A549 NSCLC
ACHN renal = tested on: ACHN renal
BT-549 breast = tested on: BT-549 breast
CAKI-1 renal = tested on: CAKI-1 renal
CCRF-CEM leukemia = tested on: CCRF-CEM leukemia
COLO 205 colon = tested on: COLO 205 colon
DU-145 prostate = tested on: DU-145 prostate
HCC-2998 colon = tested on: HCC-2998 colon
HCT-116 colon = tested on: HCT-116 colon
HCT-15 colon = tested on: HCT-15 colon
HL-60(TB) leukemia = tested on: HL-60(TB) leukemia
HOP-62 NSCLC = tested on: HOP-62 NSCLC
HOP-92 NSCLC = tested on: HOP-92 NSCLC
HS 578T breast = tested on: HS 578T breast
HT29 colon = tested on: HT29 colon
IGROV1 ovarian = tested on: IGROV1 ovarian
K-562 leukemia = tested on: K-562 leukemia
KM12 colon = tested on: KM12 colon
LOX IMVI melanoma = tested on: LOX IMVI melanoma
M14 melanoma = tested on: M14 melanoma
MALME-3M melanoma = tested on: MALME-3M melanoma
MCF7 breast = tested on: MCF7 breast
MDA-MB-231 breast = tested on: MDA-MB-231 breast
MDA-MB-435 = tested on: MDA-MB-435
MOLT-4 leukemia = tested on: MOLT-4 leukemia
NCI-H226 lung = tested on: NCI-H226 lung
NCI-H23 lung = tested on: NCI-H23 lung
NCI-H460 lung = tested on: NCI-H460 lung
NCI-H522 lung = tested on: NCI-H522 lung
NCI/ADR-RES ovarian = tested on: NCI/ADR-RES ovarian
OVCAR-3 ovarian = tested on: OVCAR-3 ovarian
OVCAR-4 ovarian = tested on: OVCAR-4 ovarian
OVCAR-5 ovarian = tested on: OVCAR-5 ovarian
OVCAR-8 ovarian = tested on: OVCAR-8 ovarian
PC-3 prostate = tested on: PC-3 prostate
RPMI-8226 leukemia = tested on: RPMI-8226 leukemia
RXF 393 renal = tested on: RXF 393 renal
SF-268 CNS = tested on: SF-268 CNS
SF-295 CNS = tested on: SF-295 CNS
SK-MEL-2 melanoma = tested on: SK-MEL-2 melanoma
SK-MEL-28 melanoma = tested on: SK-MEL-28 melanoma
SK-MEL-5 melanoma = tested on: SK-MEL-5 melanoma
SK-OV-3 ovarian = tested on: SK-OV-3 ovarian
SN12C renal = tested on: SN12C renal
SNB-19 CNS = tested on: SNB-19 CNS
SNB-75 CNS = tested on: SNB-75 CNS
SR leukemia = tested on: SR leukemia
SW-620 colon = tested on: SW-620 colon
T-47D breast = tested on: T-47D breast
TK-10 renal = tested on: TK-10 renal
U251 CNS = tested on: U251 CNS
UACC-257 melanoma = tested on: UACC-257 melanoma
UACC-62 melanoma = tested on: UACC-62 melanoma
UO-31 renal = tested on: UO-31 renal

CCCCCCCCCCCCCCNc1nc(C(=O)OCC)ncc1-c1ccc(C(F)(F)F)cc1
inactive: GI50 (786-0 renal) > 100 µM | GI50 (A498 renal) > 100 µM | GI50 (A549 NSCLC) > 100 µM | GI50 (ACHN renal) > 100 µM | GI50 (BT-549 breast) > 100 µM | GI50 (CAKI-1 renal) > 100 µM | GI50 (CCRF-CEM leukemia) > 100 µM | GI50 (COLO 205 colon) > 100 µM | GI50 (DU-145 prostate) > 100 µM | GI50 (HCC-2998 colon) > 100 µM | GI50 (HCT-116 colon) > 100 µM | GI50 (HCT-15 colon) > 100 µM | GI50 (HL-60(TB) leukemia) > 100 µM | GI50 (HOP-62 NSCLC) > 100 µM | GI50 (HOP-92 NSCLC) > 100 µM | GI50 (HS 578T breast) > 100 µM | GI50 (HT29 colon) > 100 µM | GI50 (IGROV1 ovarian) > 100 µM | GI50 (K-562 leukemia) > 100 µM | GI50 (KM12 colon) > 100 µM | GI50 (LOX IMVI melanoma) > 100 µM | GI50 (M14 melanoma) > 100 µM | GI50 (MALME-3M melanoma) > 100 µM | GI50 (MCF7 breast) > 100 µM | GI50 (MDA-MB-231 breast) > 100 µM | GI50 (MDA-MB-435) > 100 µM | GI50 (MOLT-4 leukemia) > 100 µM | GI50 (NCI-H226 lung) > 100 µM | GI50 (NCI-H23 lung) > 100 µM | GI50 (NCI-H460 lung) > 100 µM | GI50 (NCI-H522 lung) > 100 µM | GI50 (NCI/ADR-RES ovarian) > 100 µM | GI50 (OVCAR-3 ovarian) > 100 µM | GI50 (OVCAR-4 ovarian) 48.1 µM | GI50 (OVCAR-5 ovarian) > 100 µM | GI50 (OVCAR-8 ovarian) > 100 µM | GI50 (PC-3 prostate) 27.5 µM | GI50 (RPMI-8226 leukemia) > 100 µM | GI50 (RXF 393 renal) > 100 µM | GI50 (SF-268 CNS) > 100 µM | GI50 (SF-295 CNS) > 100 µM | GI50 (SK-MEL-2 melanoma) > 100 µM | GI50 (SK-MEL-28 melanoma) > 100 µM | GI50 (SK-MEL-5 melanoma) > 100 µM | GI50 (SK-OV-3 ovarian) > 100 µM | GI50 (SN12C renal) > 100 µM | GI50 (SNB-19 CNS) > 100 µM | GI50 (SNB-75 CNS) > 100 µM | GI50 (SR leukemia) > 100 µM | GI50 (SW-620 colon) > 100 µM | GI50 (T-47D breast) > 100 µM | GI50 (TK-10 renal) > 100 µM | GI50 (U251 CNS) > 100 µM | GI50 (UACC-257 melanoma) > 100 µM | GI50 (UACC-62 melanoma) > 100 µM | GI50 (UO-31 renal) > 100 µM
> 100 µM: TGI (786-0 renal) | TGI (A498 renal) | TGI (A549 NSCLC) | TGI (ACHN renal) | TGI (BT-549 breast) | TGI (CAKI-1 renal) | TGI (CCRF-CEM leukemia) | TGI (COLO 205 colon) | TGI (DU-145 prostate) | TGI (HCC-2998 colon) | TGI (HCT-116 colon) | TGI (HCT-15 colon) | TGI (HL-60(TB) leukemia) | TGI (HOP-62 NSCLC) | TGI (HOP-92 NSCLC) | TGI (HS 578T breast) | TGI (HT29 colon) | TGI (IGROV1 ovarian) | TGI (K-562 leukemia) | TGI (KM12 colon) | TGI (LOX IMVI melanoma) | TGI (M14 melanoma) | TGI (MALME-3M melanoma) | TGI (MCF7 breast) | TGI (MDA-MB-231 breast) | TGI (MDA-MB-435) | TGI (MOLT-4 leukemia) | TGI (NCI-H226 lung) | TGI (NCI-H23 lung) | TGI (NCI-H460 lung) | TGI (NCI-H522 lung) | TGI (NCI/ADR-RES ovarian) | TGI (OVCAR-3 ovarian) | TGI (OVCAR-4 ovarian) | TGI (OVCAR-5 ovarian) | TGI (OVCAR-8 ovarian) | TGI (PC-3 prostate) | TGI (RPMI-8226 leukemia) | TGI (RXF 393 renal) | TGI (SF-268 CNS) | TGI (SF-295 CNS) | TGI (SK-MEL-2 melanoma) | TGI (SK-MEL-28 melanoma) | TGI (SK-MEL-5 melanoma) | TGI (SK-OV-3 ovarian) | TGI (SN12C renal) | TGI (SNB-19 CNS) | TGI (SNB-75 CNS) | TGI (SR leukemia) | TGI (SW-620 colon) | TGI (T-47D breast) | TGI (TK-10 renal) | TGI (U251 CNS) | TGI (UACC-257 melanoma) | TGI (UACC-62 melanoma) | TGI (UO-31 renal)
